Data reported in patent US20120053182A1, “METHODS OF ALLEVIATING OR TREATING SIGNS AND/OR SYMPTOMS ASSOCIATED WITH MODERATE TO SEVERE PARKINSON'S DISEASE” (SCHERING CORPORATION, priority 2009, published 2012).
Read-outs that look alike come from different tables or passages of the source.

Assays:
[1] = Bioavailability by age or sex in healthy human volunteers; type: in vivo; settings: composition used in the patient study
[2] = test system: patients suffering from Parkinson's disease; experiment: Clinical trial in patients with moderate to severe Parkinson's disease receiving L-dopa therapy; type: in vivo, human
Protocol: A clinical trial was carried out using 253 patients suffering from Parkinson's disease and receiving L-dopa therapy.
These patients were continued on their L-dopa therapy and randomized to receive in addition either a placebo (n=49), a composition administered orally BID in an amount providing 1 mg of the compound of Formula I (n=49), a composition administered orally BID in an amount providing 2 mg of the compound of Formula I (n=49), a composition administered orally BID in an amount providing 5 mg of the compound of Formula I (n=49), or a composition administered orally BID in an amount providing 10 mg of the compound of Formula I (n=57). This treatment was continued for 12 weeks while the patients kept a diary recording the “Off-time” periods, “On-time” periods (recording whether “On-time” was accompanied by dyskinesia or troubling dyskinesia) and their total amount of sleep time. These patients were also interviewed clinically and were evaluated as well in accordance with the UPDRS rating scale, as well as for when, and the duration of, sleep attacks experienced during the study. Blood chemistry was followed clinically at regular intervals.
Moreover, with reference to FIG. 3, assessment of patients was made using the Unified Parkinson's Disease Rating Scale (UPDRS) following several weeks of administration. […] With reference to FIG. 3, for example, UPDRS, part III scores were improved by showing a decrease of at least about 3 points below the baseline score at the start of the study.

[3] = Pharmacokinetics after oral administration to healthy human volunteers; type: in vivo; settings: composition providing about 5 mg, serum; for AUC: human, po, 5 mg, healthy human volunteers
[4] = test system: akathisia induced by administration of Haldol; experiment: Haldol-induced akathisia in healthy volunteers; type: in vivo, human; settings: composition providing about 10 mg, FIG. 4
Excerpt: It is believed that a composition which provides an effective amount of the compound of Formula I will also prevent feelings of restlessness, of example, Haldol-induced akathesia.

A2a receptors = biological target: T1, A2a receptors (Homo sapiens, UniProt P29274); experiment: PET scan receptor site occupancy study in healthy human volunteers; type: in vivo
T1 construct: PET scans of a human brain were obtained; from tissue; host or cells: brain of living healthy human volunteers (in vivo PET)
T1 sequence (P29274 whole entry): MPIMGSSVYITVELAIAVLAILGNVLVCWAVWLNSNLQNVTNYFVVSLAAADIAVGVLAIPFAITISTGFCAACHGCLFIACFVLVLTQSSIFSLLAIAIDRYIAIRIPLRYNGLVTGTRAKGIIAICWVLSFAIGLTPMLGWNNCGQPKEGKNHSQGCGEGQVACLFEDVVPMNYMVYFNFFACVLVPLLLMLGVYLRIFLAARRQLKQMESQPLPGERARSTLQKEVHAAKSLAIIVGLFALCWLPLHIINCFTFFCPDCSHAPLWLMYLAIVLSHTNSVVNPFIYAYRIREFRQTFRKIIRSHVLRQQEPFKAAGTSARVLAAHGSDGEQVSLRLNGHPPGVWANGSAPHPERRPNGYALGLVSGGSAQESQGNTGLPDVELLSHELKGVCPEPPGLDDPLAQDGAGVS
Protocol: In a separate study with healthy human volunteers, and with reference to FIG. 5, PET scans of a human brain were obtained after IV administration to a subject of a composition intravenous administration of the compound of Formula II which had been labeled with ^11C-radio-isotope and then after an interval subsequent intravenous administered the compound of Formula I.
This study was carried out using 18 subjects. Capsules containing a composition providing the compound of Formula I (unlabelled) in amounts of 10, 50, or 200 mg were also administered to a subset of test subjects prior to injection of the radio-labeled compound of Formula II. Using the information obtained from the PET scan regarding the extent, location, and inhibition of radiotracer binding permitted calculation of binding potentials for the compound of Formula I. The test subjects were also evaluated for plasma levels of the compound of Formula I during the study. […] These studies also indicate that the compound of Formula I has a selectivity for the A2a receptor site of 20,000:1 relative to binding at A1, A2b, and A3 receptor sites. This study is consistent with a therapeutic level of plasma concentration being provided by administering a composition orally which provides a human subject to whom it is administered with from at least about 2 mg of the compound of Formula I to about 10 mg of the compound of Formula I and preferably 5 mg of the compound of Formula I. It is believed that BID dosing of a composition providing from about 5 mg to about 50 mg of the compound of Formula I will provide at least about 50% receptor site occupancy for at least about 12 hours/day in at least about 80% of the human population and at least about 80% receptor site occupancy for at least about 18 hours/day in at least about 75% of the population.

[5] = at least about 2 mg BID oral, 12 weeks, with L-dopa, patient diary

Compound: COCCOc1ccc(N2CCN(CCN3N=CC4c5nc(-c6ccco6)nn5C(N)=NC43)CC2)cc1 (centres unmarked) [compound of Formula I]
- differences in bioavailability (AUC or Cmax) between groups divided by age or sex [1]: no statistically significant differences
- reports of common adverse events: Parkinsonism; somnolence; dyskinesia ([2]; 1, 2, 5 or 10 mg BID oral, 12 weeks, versus placebo group): no more frequency than was reported in the placebo group
- UPDRS part IV scores ([2]; amount sufficient to maintain steady state serum level of at least about 50 ng/ml): not accompanied by an increase
- decrease of UPDRS part III score below baseline ([2]; amount sufficient to maintain steady state serum level of at least about 50 ng/ml, FIG. 3, 2 hours post dose): at least 3 points
- proportion of "On-time" with dyskinesia or other motor complications ([2]; at least about 2 mg BID oral, 12 weeks, with L-dopa): no rise
- periods of "Off-time" [2, 5]: decrease
- periods of "On-time" [2, 5]: improvement
- average daily patient "Off-time" periods ([2]; at least about 5 mg BID oral): decrease
- average daily patient "On-time" periods ([2]; at least about 5 mg BID oral): increase
- objectional side effects, for example, dyskinesia, somnolence, or insomnia ([2]; at least about 5 mg BID oral): not accompanied by objectional side effects
- UPDRS score ([2]; at least about 5 mg BID oral, throughout the course of the study): improvement in UPDRS score which is maintained throughout the course of the study
- induction of sleep attacks ([2]; effective amount, patient assessment by clinicians): not associated with induction of sleep attacks
- patient sleep patterns (total daily sleep time) ([2]; from about 2 mg BID to about 10 mg BID, FIG. 2): does not significantly adversely effect patient sleep patterns
- Cmax ([3]; average across healthy human volunteers): 112 to 130 ng/mL
- AUC ([3]; AUC to time serum level drops below detectable limit, read-out: AUC(tf)): 336 to 457 ng·h/mL
- AUC ([3]; read-out: AUC values measured from t=0 to 1 hr.): 352 to 478 ng·h/mL
- suppression of Haldol-induced akathisia [4]: successful in suppressing akathisia
- receptor site occupancy (A2a receptors; BID dosing about 5 mg to about 50 mg, for at least about 12 hours/day in at least about 80% of the human population): at least 50%
- receptor site occupancy (A2a receptors; BID dosing about 5 mg to about 50 mg, for at least about 18 hours/day in at least about 75% of the population): at least 80%
- brain distribution by PET scan (A2a receptors; human brain, 11C-labelled compound of Formula II as radiotracer): high concentrations of the compound of Formula I in regions of the brain known to contain high levels of A2a receptors
- receptor occupancy at 0.05 µg/mL (A2a receptors; human, plasma concentrations in excess of about 50 ng/ml, believed to be Emax): ~90%
- plasma concentration at 50% receptor site occupancy (A2a receptors; on average, PET, humans): 6 ng/mL
- receptor site occupancy (A2a receptors; plasma concentration levels exceeding about 25 ng/mL in humans): high level of receptor site occupancy
